Assay results reported in the supplement of paper PMC10307832.

What was measured:
Assay in all cases: relative viability (nuclei count vs DMSO), 5 days (fraction); higher = more cells survive
[1] = compound: C1COCCN1CC2=CC(=O)C(=CO2)OCCCCCSC3=C4C=CC(=CC4=NC=C3)C(F)(F)F [EHT 1864] + COc1cc2c(Oc3ccc(NC(=O)C4(C(=O)Nc5ccc(F)cc5)CC4)cc3F)ccnc2cc1OCCCN1CCOCC1 [Foretinib] (partner 0.25 µM)
Summary of the method: (§1)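 Lung cancer cell lines, seeded in 1536-well plates, were treated the following day by pin tool with a single drug or with five library-drug doses (not always all listed) in √10 steps on top of a fixed anchor-drug dose. Cells were fixed and nuclei stained in one step after 5 days, and nuclei were counted. Relative viability is the nuclei count for treated wells divided by that for vehicle wells, reported as medians of duplicate plates.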

[2] = compound: C1COCCN1CC2=CC(=O)C(=CO2)OCCCCCSC3=C4C=CC(=CC4=NC=C3)C(F)(F)F [EHT 1864] + COc1cccc2cc(-c3nc([C@H]4CC[C@H](C(=O)O)CC4)n4ncnc(N)c34)[nH]c12 [OSI-027] (partner 0.5 µM)
Summary of the method: as §1

[3] = compound: C1COCCN1CC2=CC(=O)C(=CO2)OCCCCCSC3=C4C=CC(=CC4=NC=C3)C(F)(F)F [EHT 1864] + CC(=O)c1c(C)c2cnc(Nc3ccc(N4CCNCC4)cn3)nc2n(C2CCCC2)c1=O [Palbociclib] (partner 0.5 µM)
Summary of the method: as §1

[4] = compound: C1COCCN1CC2=CC(=O)C(=CO2)OCCCCCSC3=C4C=CC(=CC4=NC=C3)C(F)(F)F [EHT 1864]
Summary of the method: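 Only plates meeting two conditions passed: control CV below 25% and at least one doubling. Lung cancer cell lines, kept overnight at 37 °C in 1536-well plates, were pinned with five library-drug doses (not always all listed) √10 apart on vehicle-anchored plates and grown 5 days without medium change. A one-step fix, permeabilisation and Hoechst stain preceded 4× imaging and MetaXpress nuclear counting. Viability equals treated-well nuclei divided by vehicle-well nuclei, as the median over plates.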

With NCI-H2023 the relative viability ([1]; first compound 0.04 µM) was 0.787, the relative viability ([1]; first compound 0.1265 µM) was 0.855 and the relative viability ([1]; first compound 0.4 µM) was 0.957. It also gave a relative viability ([1]; first compound 1.265 µM) of 0.876, a relative viability ([1]; first compound 4 µM) of 0.778 and a relative viability ([2]; first compound 0.04 µM) of 0.373. It also gave a relative viability ([2]; first compound 0.1265 µM) of 0.314, a relative viability ([2]; first compound 0.4 µM) of 0.375 and a relative viability ([2]; first compound 1.265 µM) of 0.313. For the same cell line, the relative viability ([2]; first compound 4 µM) was 0.369, the relative viability ([3]; first compound 0.04 µM) was 0.33 and the relative viability ([3]; first compound 0.1265 µM) was 0.318. It also gave a relative viability ([3]; first compound 0.4 µM) of 0.354, a relative viability ([3]; first compound 1.265 µM) of 0.382 and a relative viability ([3]; first compound 4 µM) of 0.364. The relative viability ([4]; 0.04 µM) was 0.944, the relative viability ([4]; 0.1265 µM) was 0.817 and the relative viability ([4]; 0.4 µM) was 0.893. For the same cell line, the relative viability ([4]; 1.265 µM) was 0.925 and the relative viability ([4]; 4 µM) was 0.939.
In the case of NCI-H2085, the relative viability ([1]; first compound 0.04 µM) is reported as 1.13, the relative viability ([1]; first compound 0.4 µM) is reported as 0.9 and the relative viability ([1]; first compound 1.265 µM) is reported as 0.92. For the same cell line, the relative viability ([1]; first compound 4 µM) was 0.89, the relative viability ([2]; first compound 0.04 µM) was 0.719 and the relative viability ([2]; first compound 0.4 µM) was 0.772. The relative viability ([2]; first compound 1.265 µM) was 0.719, the relative viability ([2]; first compound 4 µM) was 0.812 and the relative viability ([3]; first compound 0.04 µM) was 0.446. For the same cell line, the relative viability ([3]; first compound 0.1265 µM) was 0.459, the relative viability ([3]; first compound 0.4 µM) was 0.456 and the relative viability ([3]; first compound 1.265 µM) was 0.451. It also gave a relative viability ([3]; first compound 4 µM) of 0.417, a relative viability ([4]; 0.04 µM) of 0.988 and a relative viability ([4]; 0.1265 µM) of 0.897. The relative viability ([4]; 0.4 µM) was 0.987, the relative viability ([4]; 1.265 µM) was 1.01 and the relative viability ([4]; 4 µM) was 0.903.
Cell Line NCI-H2087 has a relative viability ([1]; first compound 0.04 µM) of 1.01, a relative viability ([1]; first compound 0.4 µM) of 1 and a relative viability ([1]; first compound 1.265 µM) of 1.01. It also gave a relative viability ([1]; first compound 4 µM) of 0.845, a relative viability ([2]; first compound 0.04 µM) of 0.496 and a relative viability ([2]; first compound 0.4 µM) of 0.578. For the same cell line, the relative viability ([2]; first compound 1.265 µM) was 0.496, the relative viability ([2]; first compound 4 µM) was 0.586 and the relative viability ([3]; first compound 0.04 µM) was 0.266. It also gave a relative viability ([3]; first compound 0.4 µM) of 0.223, a relative viability ([3]; first compound 1.265 µM) of 0.156 and a relative viability ([3]; first compound 4 µM) of 0.224. It also gave a relative viability ([4]; 0.04 µM) of 1.12, a relative viability ([4]; 0.4 µM) of 0.956 and a relative viability ([4]; 1.265 µM) of 0.832. The relative viability ([4]; 4 µM) was 0.942.
Cell Line NCI-H2126 has a relative viability ([1]; first compound 0.04 µM) of 1.17, a relative viability ([1]; first compound 0.1265 µM) of 1.22 and a relative viability ([1]; first compound 0.4 µM) of 1.19. For the same cell line, the relative viability ([1]; first compound 1.265 µM) was 1.22, the relative viability ([1]; first compound 4 µM) was 1.22 and the relative viability ([2]; first compound 0.04 µM) was 0.738. It also gave a relative viability ([2]; first compound 0.1265 µM) of 0.667, a relative viability ([2]; first compound 0.4 µM) of 0.729 and a relative viability ([2]; first compound 1.265 µM) of 0.74. It also gave a relative viability ([2]; first compound 4 µM) of 0.725, a relative viability ([3]; first compound 0.04 µM) of 0.338 and a relative viability ([3]; first compound 0.1265 µM) of 0.365. It also gave a relative viability ([3]; first compound 0.4 µM) of 0.333, a relative viability ([3]; first compound 1.265 µM) of 0.336 and a relative viability ([3]; first compound 4 µM) of 0.349. The relative viability ([4]; 0.04 µM) was 0.983, the relative viability ([4]; 0.1265 µM) was 0.914 and the relative viability ([4]; 0.4 µM) was 0.986. The relative viability ([4]; 1.265 µM) was 0.985 and the relative viability ([4]; 4 µM) was 0.999.
NCI-H2170 was tested, and the relative viability ([1]; first compound 0.04 µM) was 1.01, the relative viability ([1]; first compound 0.1265 µM) was 1.01 and the relative viability ([1]; first compound 0.4 µM) was 0.998. The relative viability ([1]; first compound 1.265 µM) was 0.943, the relative viability ([1]; first compound 4 µM) was 1 and the relative viability ([2]; first compound 0.04 µM) was 0.787. For the same cell line, the relative viability ([2]; first compound 0.1265 µM) was 0.582, the relative viability ([2]; first compound 0.4 µM) was 0.803 and the relative viability ([2]; first compound 1.265 µM) was 0.795. It also gave a relative viability ([2]; first compound 4 µM) of 0.702, a relative viability ([3]; first compound 0.04 µM) of 0.381 and a relative viability ([3]; first compound 0.1265 µM) of 0.308. It also gave a relative viability ([3]; first compound 0.4 µM) of 0.408, a relative viability ([3]; first compound 1.265 µM) of 0.356 and a relative viability ([3]; first compound 4 µM) of 0.395. For the same cell line, the relative viability ([4]; 0.04 µM) was 0.904, the relative viability ([4]; 0.1265 µM) was 0.889 and the relative viability ([4]; 0.4 µM) was 0.996. The relative viability ([4]; 1.265 µM) was 1.06 and the relative viability ([4]; 4 µM) was 1.01.
Work on NCI-H2228 yielded a relative viability ([1]; first compound 0.04 µM) of 0.81, a relative viability ([1]; first compound 0.1265 µM) of 0.758 and a relative viability ([1]; first compound 0.4 µM) of 0.904. For the same cell line, the relative viability ([1]; first compound 1.265 µM) was 0.836, the relative viability ([1]; first compound 4 µM) was 0.9 and the relative viability ([2]; first compound 0.04 µM) was 0.637. It also gave a relative viability ([2]; first compound 0.1265 µM) of 0.48, a relative viability ([2]; first compound 0.4 µM) of 0.666 and a relative viability ([2]; first compound 1.265 µM) of 0.522. It also gave a relative viability ([2]; first compound 4 µM) of 0.588, a relative viability ([3]; first compound 0.04 µM) of 0.881 and a relative viability ([3]; first compound 0.1265 µM) of 0.634. For the same cell line, the relative viability ([3]; first compound 0.4 µM) was 0.642, the relative viability ([3]; first compound 4 µM) was 0.777 and the relative viability ([4]; 0.04 µM) was 0.974. For the same cell line, the relative viability ([4]; 0.1265 µM) was 0.876, the relative viability ([4]; 0.4 µM) was 0.934 and the relative viability ([4]; 1.265 µM) was 0.776. For the same cell line, the relative viability ([4]; 4 µM) was 1.
Work on NCI-H2342 yielded a relative viability ([1]; first compound 0.04 µM) of 1.04, a relative viability ([1]; first compound 0.1265 µM) of 0.903 and a relative viability ([1]; first compound 0.4 µM) of 1.07. For the same cell line, the relative viability ([1]; first compound 1.265 µM) was 0.963, the relative viability ([1]; first compound 4 µM) was 1.06 and the relative viability ([2]; first compound 0.04 µM) was 0.529. For the same cell line, the relative viability ([2]; first compound 0.1265 µM) was 0.555, the relative viability ([2]; first compound 0.4 µM) was 0.576 and the relative viability ([2]; first compound 1.265 µM) was 0.573. It also gave a relative viability ([2]; first compound 4 µM) of 0.636, a relative viability ([3]; first compound 0.04 µM) of 0.487 and a relative viability ([3]; first compound 0.1265 µM) of 0.485. The relative viability ([3]; first compound 0.4 µM) was 0.505, the relative viability ([3]; first compound 1.265 µM) was 0.554 and the relative viability ([3]; first compound 4 µM) was 0.551. The relative viability ([4]; 0.04 µM) was 0.778, the relative viability ([4]; 0.1265 µM) was 0.856 and the relative viability ([4]; 0.4 µM) was 0.803. It also gave a relative viability ([4]; 1.265 µM) of 0.929 and a relative viability ([4]; 4 µM) of 1.03.
Cell Line NCI-H2347 has a relative viability ([1]; first compound 0.04 µM) of 0.974, a relative viability ([1]; first compound 0.4 µM) of 0.862 and a relative viability ([1]; first compound 1.265 µM) of 0.363. The relative viability ([1]; first compound 4 µM) was 0.809, the relative viability ([2]; first compound 0.04 µM) was 0.389 and the relative viability ([2]; first compound 0.1265 µM) was 0.369. It also gave a relative viability ([2]; first compound 0.4 µM) of 0.442, a relative viability ([2]; first compound 4 µM) of 0.396 and a relative viability ([3]; first compound 0.04 µM) of 0.428. For the same cell line, the relative viability ([3]; first compound 0.1265 µM) was 0.382, the relative viability ([3]; first compound 0.4 µM) was 0.368 and the relative viability ([3]; first compound 1.265 µM) was 0.439. For the same cell line, the relative viability ([3]; first compound 4 µM) was 0.364, the relative viability ([4]; 0.04 µM) was 1.07 and the relative viability ([4]; 0.1265 µM) was 0.75. It also gave a relative viability ([4]; 0.4 µM) of 1.01, a relative viability ([4]; 1.265 µM) of 0.966 and a relative viability ([4]; 4 µM) of 1.03.
